Assay results reported in ChEMBL document CHEMBL6103618, “Discovery of Novel Oxazolo[4,3-f]purine Derivatives as Antitumor Agents through PPIA Interaction” (J Med Chem, 2025).
Active and inactive are the calls of the source. The rule behind the calls is not given here.

Legend:
[1] = system: HCT-116; test: Induction of DNA damage in human HCT-116 cells assessed as increase in p53 level at 0.3 to 1.2 uM incubated for 48 hrs by Western blot analysis; type: functional, cell-based; conditions: dose 0.3-1.2 µM
[2] = system: HCT-116; test: Induction of mitochondrial dysfunction in human HCT-116 cells assessed as decrease in ATP6 level at 0.3 to 1.2 uM by Western blot analysis; type: functional, cell-based; conditions: dose 0.3-1.2 µM
[3] = system: HCT-116; test: Induction of apoptosis in human HCT-116 cells assessed as early apoptotic cells at 0.3 uM incubated for 48 hrs by Annexin V-FITC/PI staining based flow cytometry (reference value: 1.12 %); type: functional
[4] = system: HCT-116; test: Induction of cell cycle arrest in human HCT-116 cells assessed as accumulation at S phase at 0.6 uM incubated for 48 hrs by PI staining based flow cytometry (reference value: 34.55 %); type: functional
[5] = Toxicity in BALB/c mouse implanted with mouse CT26 cells assessed as injury in liver at 15 to 45 mg/kg, ip qd treated for 14 days by H and E staining based analysis; type: organism-based; conditions: in vivo, 336 h, dose 15-45 mg/kg, time 14 day
[6] = system: HCT-116; test: Induction of apoptosis in human HCT-116 cells assessed as decrease in Bcl-2 level at 1.2 uM in presence of NAC by Western blot analysis; type: functional, cell-based
[7] = system: HCT-116; test: Induction of apoptosis in human HCT-116 cells assessed as viable cells at 0.3 uM incubated for 48 hrs by Annexin V-FITC/PI staining based flow cytometry (reference value: 96.2 %); type: functional; conditions: read-out: Activity
[8] = system: HCT-116; test: Induction of ER stress in human HCT-116 cells assessed as increase in PERK level at 0.3 to 1.2 uM by Western blot analysis; type: functional, cell-based; conditions: dose 0.3-1.2 µM
[9] = target: T1, Peptidyl-prolyl cis-trans isomerase A (Homo sapiens, UniProt P62937); test: Binding affinity to PPIA (unknown origin) at 2 uM preincubated for 30 mins followed by Proteinase K addition measured after 10 mins by LiP-SMap analysis
T1 sequence (P62937 whole entry, looked up): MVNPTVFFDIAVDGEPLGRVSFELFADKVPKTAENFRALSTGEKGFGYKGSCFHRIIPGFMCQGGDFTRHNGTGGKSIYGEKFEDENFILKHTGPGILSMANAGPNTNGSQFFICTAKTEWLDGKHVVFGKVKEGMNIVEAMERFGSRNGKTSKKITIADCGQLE

[10] = Toxicity in BALB/c mouse implanted with mouse CT26 cells assessed as abnormality in liver at 15 to 45 mg/kg, ip qd treated for 14 days by H and E staining based analysis; type: organism-based; conditions: in vivo, 336 h, dose 15-45 mg/kg, time 14 day
[11] = system: HCT-116; test: Induction of cell cycle arrest in human HCT-116 cells assessed as decrease in CDK4 level incubated for 48 hrs by Western blot analysis; type: functional, cell-based; conditions: dose 0.3-1.2 µM
[12] = system: HCT-116; test: Induction of intracellular ROS generation in human HCT-116 cells at 1.2 uM in presence of NAC by flow cytometry; type: functional, cell-based
[13] = system: HCT-116; test: Anti-migration activity in human HCT-116 cells harboring siPPIA-3 at 1.2 uM incubated for 24 hrs by wound healing assay; type: functional, cell-based
[14] = system: HCT-116; test: Induction of apoptosis in human HCT-116 cells assessed as increase in Bax level at 1.2 uM in presence of NAC by Western blot analysis; type: functional, cell-based
[15] = Acute toxicity in BALB/c mouse assessed as death rate at 250 mg/kg, ip measured for 14 days; type: organism-based; conditions: both, in vivo, time 14 day, read-out: Activity
[16] = system: HCT-116; test: Induction of cell cycle arrest in human HCT-116 cells assessed as accumulation at G1 phase at 0.6 uM incubated for 48 hrs by PI staining based flow cytometry (reference value: 59.37 %); type: functional
[17] = system: HCT-116; test: Cytotoxicity against human HCT-116 cells harboring siNC assessed as inhibition of cell viability incubated for 48 hrs by CCK8 assay; type: functional, cell-based; conditions: HCT-116, 48 h
[18] = system: HCT-116; test: Induction of mitochondrial dysfunction in human HCT-116 cells at 0.3 to 1.2 uM by JC-1 dye based analysis; type: functional, cell-based; conditions: dose 0.3-1.2 µM
[19] = Toxicity in BALB/c mouse implanted with mouse CT26 cells assessed as abnormality in lung at 15 to 45 mg/kg, ip qd treated for 14 days by H and E staining based analysis; type: organism-based; conditions: in vivo, 336 h, dose 15-45 mg/kg, time 14 day
[20] = Toxicity in BALB/c mouse implanted with mouse CT26 cells assessed as abnormality in kidney at 15 to 45 mg/kg, ip qd treated for 14 days by H and E staining based analysis; type: organism-based; conditions: in vivo, 336 h, dose 15-45 mg/kg, time 14 day
[21] = system: HCT-116; test: Induction of cell cycle arrest in human HCT-116 cells assessed as accumulation at G1 phase at 0.3 uM incubated for 48 hrs by PI staining based flow cytometry (reference value: 59.37 %); type: functional
[22] = system: HCT-116; test: Induction of apoptosis in human HCT-116 cells harboring siNC assessed as late apoptotic cells at 1.2 uM by Annexin V-FITC/PI staining based flow cytometry (reference value: 1.35 %); type: functional
[23] = Stability in mouse plasma assessed as half life measured upto 24 hrs by HPLC analysis; type: ADME, cell-free
[24] = system: HCT-116; test: Effect on TK1 expression in human HCT-116 cells upto 6 uM incubated for 30 mins followed by pronase addition measured after 30 mins by DARTS assay; type: functional, cell-based
[25] = system: HCT-116; test: Induction of cell cycle arrest in human HCT-116 cells assessed as accumulation at G2 phase at 1.2 uM incubated for 48 hrs by PI staining based flow cytometry (reference value: 6.08 %); type: functional
[26] = system: HCT-116; test: Induction of cell cycle arrest in human HCT-116 cells assessed as accumulation at G1 phase at 1.2 uM incubated for 48 hrs by PI staining based flow cytometry (reference value: 59.37 %); type: functional
[27] = system: HCT-116; test: Induction of apoptosis in human HCT-116 cells assessed as late apoptotic cells at 0.3 uM incubated for 48 hrs by Annexin V-FITC/PI staining based flow cytometry (reference value: 1.55 %); type: functional
[28] = Acute toxicity in BALB/c mouse assessed as death rate at 700 mg/kg, ip measured for 14 days; type: organism-based; conditions: both, in vivo, time 14 day, read-out: Activity
[29] = system: CT26; test: Antitumor activity against mouse CT26 cells implanted in BALB/c mouse assessed as tumor growth inhibition administered intraperitoneally once daily for 14 days; type: functional; conditions: dose 15-45 mg/kg, route ip, time 14.0 day
[30] = system: MCF7; test: Antiproliferative activity against human MCF7 cells assessed as inhibition of cell viability incubated for 48 hrs by CCK8 assay; type: functional, cell-based; conditions: MCF7, 48 h
[31] = system: HCT-116; test: Anti-proliferative activity against human HCT-116 cells harboring siPPIA-3 assessed as decrease in p-p38 level at 1.2 uM by Western blot analysis; type: functional, cell-based
[32] = system: HCT-116; test: Induction of apoptosis in human HCT-116 cells harboring siNC assessed as early apoptotic cells at 1.2 uM by Annexin V-FITC/PI staining based flow cytometry (reference value: 1.52 %); type: functional
[33] = system: HCT-116; test: Induction of apoptosis in human HCT-116 cells assessed as necrotic cells at 1.2 uM incubated for 48 hrs by Annexin V-FITC/PI staining based flow cytometry (reference value: 1.15 %); type: functional
[34] = target: T1, Peptidyl-prolyl cis-trans isomerase A; test: Binding affinity to PPIA in human HCT-116 cells assessed as increase in thermal stability at 16 uM incubated for 30 mins followed by heat exposure at 40 to 60 degreeC for 3 mins by CETSA; type: cell-based; conditions: time 33.0 min
[35] = system: HCT-116; test: Cytotoxicity against human HCT-116 cells harboring siPPIA-3 assessed as inhibition of cell viability incubated for 48 hrs by CCK8 assay; type: functional, cell-based; conditions: HCT-116, 48 h
[36] = system: HCT-116; test: Anti-proliferative activity against human HCT-116 cells harboring siPPIA-3 assessed as decrease in p-ERK1/2 level at 1.2 uM by Western blot analysis; type: functional, cell-based

C=C(C(=O)OC)N1c2nc(Cl)nc(Cl)c2N2C(c3ccccc3F)OC(C(=O)OCC)(C(=O)OCC)C12 (racemic)
Activity [1]: Active
Activity [2]: Active
Activity [3]: 11.7%
Activity [4]: 28.97%
Activity [5]: Non-toxic
Activity [6]: inactive
viability at 0.3 µM [7]: 82.9%
Activity [8]: Active
Activity [9]: Active
Activity [10]: Non-toxic
Activity [11]: Dose-dependent-effect
Activity [12]: inactive
Activity [13]: inactive
Activity [14]: inactive
mortality at 336 h [15]: 10%
Activity [16]: 66.32%
IC50 [17]: 470 nM
Activity [18]: Active
Activity [19]: Non-toxic
Activity [20]: Non-toxic
Activity [21]: 65.85%
Activity [22]: 4.87%
half-life [23]: 4.78 h
Activity [24]: No effect
Activity [25]: 2.78%
Activity [26]: 69.07%
Activity [27]: 3.56%
mortality at 336 h [28]: 100%
inhibition [29]: Dose-dependent-effect
IC50 [30]: 1190 nM
Activity [31]: inactive
Activity [32]: 16.8%
Activity [33]: 2.4%
Activity [34]: Active; Activity Similar To Csa
IC50 [35]: 1940 nM
Activity [36]: inactive
